Counter-ions that a name gives are not always drawn. Values belong to the compound of their own block, whether it stands above or below them.
How the values were obtained:
[1] = Cycling tests of redox flow battery cells in constant power cycling mode
[2] = 0.2 M ARS, pH 14.0, Battery no 1, 60 mL, flowrate 0.5 mL/min/cm^2
[3] = 0.2 M ARS, pH 14.0, Battery no 1, 60 mL, flowrate 5 mL/min/cm^2
[4] = 0.2 M ARS, pH 14.0, Battery no 2, 120 mL, flowrate 0.5 mL/min/cm^2
[5] = 0.2 M ARS, pH 14.0, Battery no 2, 120 mL, flowrate 5 mL/min/cm^2
[6] = extrapolated from 5 days, flowrate 0.5 mL/min/cm^2, negolyte 120/120/40/370 mL
[7] = 0.3 M Complexone, pH 13.7, Battery no 5, 40 mL, flowrate 0.5 mL/min/cm^2
[8] = 0.3 M Complexone, pH 13.7, Battery no 5, 40 mL, flowrate 5 mL/min/cm^2

Compound: O=C1c2ccccc2C(=O)c2c1cc(S(=O)(=O)O)c(O)c2O [ARS, 1,2-Dihydroxyanthraquinone-3-sulfonic acid sodium salt]
- Stability in cycles (−20%) [1, 2]: 81 cycles
- Stability in days (−20%) [1, 2]: 3.5 days
- Stability in cycles (−20%) [1, 3]: 138 cycles
- Stability in days (−20%) [1, 3]: 6.4 days
- Stability in cycles (−20%) [1, 4]: 45 cycles
- Stability in days (−20%) [1, 4]: 3.8 days
- Stability in cycles (−20%) [1, 5]: 62 cycles
- Stability in days (−20%) [1, 5]: 6.6 days
- Stability in cycles (−20%) [1, 6]: 45 cycles
- Stability in days (−20%) [1, 6]: 3.5 days

- Stability in cycles (−20%) [1, 7]: 63 cycles
- Stability in days (−20%) [1, 7]: 3.2 days
- Stability in cycles (−20%) [1, 8]: 69 cycles
- Stability in days (−20%) [1, 8]: 3.4 days
- Stability in cycles (−20%) [1, 6]: 74 cycles
- Stability in days (−20%) [1, 6]: 3.3 days
Compound: O=C(O)CN(CC(=O)O)Cc1cc2c(c(O)c1O)C(=O)c1ccccc1C2=O [Complexone, 3,4-Dihydroxyanthraquinon-2-yl-methylimino-diacetic acid]

Compound: O=C1c2ccccc2C(=O)c2c(OCCCS(=O)(=O)[O-])ccc(OCCCS(=O)(=O)[O-])c21.[Na+].[Na+] [Compound D3SNa]
- Solubility, solution at pH 0 (H2SO4 1M): 0.15 M
- Solubility, solution at pH 14 (KOH 1M): 0.44 M

Compound: O=C1c2ccccc2C(=O)c2c(OCCCCS(=O)(=O)[O-])ccc(O)c21.[Na+] [Compound M4SNa]
- Solubility, solution at pH 0 (H2SO4 1M): 0.37 M
- Solubility, solution at pH 14 (KOH 1M): 0.88 M
